Assay [1] addresses T1, fucosyltransferase IX (FTIX) (Homo sapiens, UniProt Q9Y231).
T1 sequence (Q9Y231 1-359): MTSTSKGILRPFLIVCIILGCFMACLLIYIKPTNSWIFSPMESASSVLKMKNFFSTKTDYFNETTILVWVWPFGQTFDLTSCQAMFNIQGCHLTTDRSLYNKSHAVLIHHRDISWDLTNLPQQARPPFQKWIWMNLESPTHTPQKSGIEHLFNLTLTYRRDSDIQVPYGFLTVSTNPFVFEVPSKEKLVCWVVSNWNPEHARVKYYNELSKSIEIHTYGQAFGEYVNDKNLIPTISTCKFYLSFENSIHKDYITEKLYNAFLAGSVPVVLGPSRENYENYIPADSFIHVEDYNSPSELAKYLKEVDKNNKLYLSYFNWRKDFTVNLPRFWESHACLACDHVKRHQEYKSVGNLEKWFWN
The assay can be described thus: FTIX exofucosylation of mesenchymal stem cells (MSC), Le^x by flow cytometry. Conditions: MSCs; same conditions as RPMI-8402 cells. It counts as cell-based. How it is done:
(§1) A Canto II (BD Biosciences) flow cytometer was utilized for flow cytometry and the data acquired was analyzed using FlowJo Software (Treestar). Cells were stained using antibodies specific to sLe^X (Alexa-Fluor 488 Mouse Anti-Human CD15s (BD Biosciences)), or Le^X (APC anti-human CD15 (SSEA-1) Antibody (BioLegend)).
Cells of the RPMI-8402 cell line and MSC cell line were treated with either 0.3 ug of fucosyltransferase VI (FTVI), 2.7 ug of fucosyltransferase VII (FTVII), 1.0 ug fucosyltransferase IX (FTIX) or buffer-only at 37° C. for 60 minutes. All reactions contained at 1×10^6 cells/30 ul in HBSS with 10 mM Hepes, 0.1% Human Serum Albumin, and 1.0 mM GDP fucose (GDP-Fuc) (Carbosynth) and the appropriate fucosytransferase. Then, mimetic 1 was added to each of the treatment groups in molar equivalents with respect to GDP-Fuc with each of the fucosytransferases. […]
Mimetic 1 (FIG. 1) was tested as an inhibitor of FT-mediated exofucosylation on these cells and the extent of fucosylation was monitored using antibodies that detect the creation of the relevant fucosylated epitopes, i.e., sLe^x or Le^x. […]

Assay [2] concerns the target T2, fucosyltransferase VII (FTVII) (Homo sapiens, UniProt Q11130).
T2 sequence (Q11130 37-342 limits assumed): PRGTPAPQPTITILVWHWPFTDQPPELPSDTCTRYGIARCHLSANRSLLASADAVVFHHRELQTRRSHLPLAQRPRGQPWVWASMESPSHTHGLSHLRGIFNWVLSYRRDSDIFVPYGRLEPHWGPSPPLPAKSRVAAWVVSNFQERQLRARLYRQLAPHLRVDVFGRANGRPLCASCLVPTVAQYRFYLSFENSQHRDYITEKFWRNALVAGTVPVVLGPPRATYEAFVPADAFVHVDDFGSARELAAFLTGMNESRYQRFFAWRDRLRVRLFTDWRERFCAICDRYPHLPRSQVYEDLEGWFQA
Briefly: FTVII exofucosylation of RPMI-8402 cells, sLe^x by flow cytometry. It counts as cell-based. Here is the method:
as §1
Cells of the RPMI-8402 cell line and MSC cell line were treated with either 0.3 ug of fucosyltransferase VI (FTVI), 2.7 ug of fucosyltransferase VII (FTVII), 1.0 ug fucosyltransferase IX (FTIX) or buffer-only at 37° C. for 60 minutes. All reactions contained at 1×10^6 cells/30 ul in HBSS with 10 mM Hepes, 0.1% Human Serum Albumin, and 1.0 mM GDP fucose (GDP-Fuc) (Carbosynth) and the appropriate fucosytransferase. Then, mimetic 1 was added to each of the treatment groups in molar equivalents with respect to GDP-Fuc with each of the fucosytransferases. The treatment groups were as follows: 1:1 GDP-Fuc to mimetic 1 (i.e., 1.0 mM GDP-Fuc and 1.0 mM mimetic), 1:2 GDP-Fuc to mimetic 1 (i.e., 1.0 mM GDP-Fuc and 2.0 mM mimetic), or preincubated in presence of FT with a 2.0 mM solution of the mimetic 1 for 45 minutes followed by addition of a 1.0 mM solution of GDP-Fuc for 1 hour. Concentrations of the various FTs were utilized that would maximize the MFI to allow the detection of the efficacy of mimetic 1 to inhibit the various enzymes.
Exofucosylation is a technique whereby a pertinent FT together with GDP-Fuc is placed in a cell suspension to stereoselectively install fucose on pertinent acceptor cell surface glycan(s). For the case of α-1,3-FTs, this approach provides the ability to pinpoint the effect(s) of mimetic addition on creation of fucosylated glycans Le^x and sLe^x, while keeping the rest of the cell's biological functions and its viability intact. Specifically, this study focused on three α-1,3-FTs that can create sLe^x and Le^x determinants: FTVII, FTIX, and FTVI. To assess enzymatic activity, two cell types were utilized, the human lymphoblastic leukemia cell line RPMI-8402 and human mesenchymal stem cells (MSCs).
Mimetic 1 (FIG. 1) was tested as an inhibitor of FT-mediated exofucosylation on these cells and the extent of fucosylation was monitored using antibodies that detect the creation of the relevant fucosylated epitopes, i.e., sLe^x or Le^x. Cells were treated directly with reaction buffer containing the relevant FTs together with 1.0 mM GDP-Fuc and cells untreated with FTs (UT) were used as reference reaction negative control (FIGS. 2A, 2B, 2C, 3, 4A and 4B). […]
Moreover, a pre-incubation protocol was also analyzed, wherein the cell suspension was pre-treated with FTVII and a 2.0 mM solution of mimetic 1 followed by addition of 1.0 mM solution of GDP-Fuc (Pre).

Here are results for one compound from patent publication US12486298B2, “Fucosyltransferase specific inhibition using fucose mimetics” (THE FLORIDA INTERNATIONAL UNIVERSITY BOARD OF TRUSTEES, priority 2020, dated 2025).

SMILES strings stand for the structures. “Also recorded” adds a separate entry of the source.

With `CC1OC2Oc3ccc(CC(=O)O)cc3SC2C(O)C1O` (centres unmarked) [mimetic 1], the “inhibition of FTIX production of Le^x” value in assay [1] is listed as “did not inhibit FTIX production of Le^x”. In addition, in assay [2] (RPMI-8402 cells, 1.0 mM GDP-Fuc with 1.0 mM or 2.0 mM mimetic 1), the “inhibition of FTVII-driven sLe^x expression” value was “able to inhibit FTVII-driven sLe^x expression”. In assay [2] (at 2.0 mM mimetic 1, 1.0 mM GDP-Fuc), the “extent of inhibition, FTVII compared with FTVI” value is “slightly higher extent of inhibition on FTVII over FTVI”. The “inhibition of FTVII sLe^x production after pre-incubation” value in assay [2] (pre-incubation of FTVII with 2.0 mM mimetic 1 for 45 minutes, then 1.0 mM GDP-Fuc for 1 hour) is “significant inhibition of sLe^x production; also recorded: inhibited more completely”. For the same compound, the “concentration of highest inhibition against FTVII” value in assay [2] (titration of mimetic 1, 1.0 mM GDP-Fuc, RPMI-8402 cells, bell-shaped curve) is on record as 2.0 mM.
